From ChEMBL document CHEMBL1201862, “PubChem BioAssay data set” (2004)
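Results reflect a 48-hour exposure of cells in 96-well plates to compound at five concentrations. GI50 = concentration required for 50% inhibition of growth.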 Active and inactive are the calls of the source. No stated cut-off is given here; in the data, active = GI50 up to about 1.1 µM and inactive = higher.

Legend:
Experiment in all cases: NCI anticancer screen, dose series, 48 h
[1] = system: OVCAR-4
[2] = system: KM12
[3] = system: EKVX
[4] = system: SW-620
[5] = system: SF-268
[6] = system: LXFL 529
[7] = system: CCRF-CEM
[8] = system: UACC-257
[9] = system: NCI-H460
[10] = system: RPMI-8226
[11] = system: SR
[12] = system: ACHN
[13] = system: NCI-H226
[14] = system: HL-60
[15] = system: NCI-H522
[16] = system: K562
[17] = system: HCT-116
[18] = system: SNB-78
[19] = system: SNB-19
[20] = system: OVCAR-5
[21] = system: 786-0
[22] = system: M14
[23] = system: M19-MEL
[24] = system: HOP-92
[25] = system: HCT-15
[26] = system: HCC 2998
[27] = system: SNB-75
[28] = system: SF-539
[29] = system: LOX IMVI
[30] = system: SN12C
[31] = system: Malme-3M
[32] = system: A549
[33] = system: HOP-62
[34] = system: KM-20L2
[35] = system: NCI-H23
[36] = system: TK-10
[37] = system: DMS-273
[38] = system: XF498
[39] = system: SK-MEL-5
[40] = system: U-251
[41] = system: HOP-18
[42] = system: UACC-62
[43] = system: RXF 393
[44] = system: MOLT-4
[45] = system: SK-MEL-28
[46] = system: DLD-1
[47] = system: OVCAR-8
[48] = system: OVCAR-3
[49] = system: COLO 205
[50] = system: UO-31
[51] = system: CAKI-1
[52] = system: HT-29
[53] = system: SF-295
[54] = system: SK-OV-3
[55] = system: IGROV-1
[56] = system: NCI/ADR-RES
[57] = system: DMS-114
[58] = system: MCF7
[59] = system: A498
[60] = system: SK-MEL-2

## O=C(/C=C/c1ccccc1)Oc1cccc2cccnc12
[1]
  GI50: 6.87 µM (inactive)
[2]
  GI50: 8.39 µM (inactive)
[3]
  GI50: 6.65 µM (inactive)
[4]
  GI50: 3.82 µM (inactive)
[5]
  GI50: 2.23 µM (inactive)
[6]
  GI50: 4.06 µM (inactive)
[7]
  GI50: 3.18 µM (inactive)
[8]
  GI50: 2.88 µM (inactive)
[9]
  GI50: 3.62 µM (inactive)
[10]
  GI50: 4.38 µM (inactive)
[11]
  GI50: 1.57 µM (inactive)
[12]
  GI50: 20.3 µM (inactive)
[13]
  GI50: 26.7 µM (inactive)
[14]
  GI50: 3.01 µM (inactive)
[15]
  GI50: 1.09 µM (active)
[16]
  GI50: 3.85 µM (inactive)
[17]
  GI50: 3.33 µM (inactive)
[18]
  GI50: 21 µM (inactive)
[19]
  GI50: 31.4 µM (inactive)
[20]
  GI50: 14.7 µM (inactive)
[21]
  GI50: > 44.4 µM (inactive)
[22]
  GI50: 4.11 µM (inactive)
[23]
  GI50: 13.2 µM (inactive)
[24]
  GI50: 17.5 µM (inactive)
[25]
  GI50: 6.17 µM
[26]
  GI50: 43.2 µM (inactive)
[27]
  GI50: 14.3 µM (inactive)
[28]
  GI50: 3.93 µM (inactive)
[29]
  GI50: 9.64 µM (inactive)
[30]
  GI50: 3.97 µM (inactive)
[31]
  GI50: 3.8 µM (inactive)
[32]
  GI50: 12.9 µM (inactive)
[33]
  GI50: 21.2 µM (inactive)
[34]
  GI50: 2.2 µM (inactive)
[35]
  GI50: 3.72 µM (inactive)
[36]
  GI50: > 84.5 µM (inactive)
[37]
  GI50: 23 µM (inactive)
[38]
  GI50: 11.3 µM (inactive)
[39]
  GI50: 7.74 µM (inactive)
[40]
  GI50: 4.71 µM (inactive)
[41]
  GI50: 25.8 µM (inactive)
[42]
  GI50: 5.47 µM (inactive)
[43]
  GI50: 21.1 µM (inactive)
[44]
  GI50: 3.2 µM (inactive)
[45]
  GI50: 16.4 µM (inactive)
[46]
  GI50: 4.37 µM (inactive)
[47]
  GI50: 4.02 µM (inactive)
[48]
  GI50: 2.96 µM (inactive)
[49]
  GI50: 14.5 µM (inactive)
[50]
  GI50: 6.35 µM (inactive)
[51]
  GI50: 32 µM (inactive)
[52]
  GI50: 7.93 µM (inactive)
[53]
  GI50: 8.28 µM (inactive)
[54]
  GI50: 41.1 µM (inactive)
[55]
  GI50: 11.2 µM (inactive)

## O=C(CCN1CCCCC1)C(=Cc1ccccc1)C(=O)CCN1CCCCC1
[1]
  GI50: > 100 µM (inactive)
[2]
  GI50: > 64.7 µM (inactive)
[3]
  GI50: > 100 µM (inactive)
[4]
  GI50: 29.7 µM (inactive)
[5]
  GI50: > 78.9 µM (inactive)
[7]
  GI50: 17.2 µM (inactive)
[8]
  GI50: 6.75 µM (inactive)
[9]
  GI50: > 100 µM (inactive)
[10]
  GI50: 20.8 µM (inactive)
[11]
  GI50: 4.36 µM (inactive)
[12]
  GI50: 9.73 µM (inactive)
[13]
  GI50: > 100 µM (inactive)
[14]
  GI50: 21.7 µM (inactive)
[15]
  GI50: 1.23 µM (inactive)
[16]
  GI50: 19.7 µM (inactive)
[17]
  GI50: 42.3 µM (inactive)
[18]
  GI50: > 62.5 µM (inactive)
[19]
  GI50: > 100 µM (inactive)
[20]
  GI50: > 100 µM (inactive)
[21]
  GI50: 7.28 µM (inactive)
[22]
  GI50: 5.18 µM (inactive)
[23]
  GI50: 67.3 µM (inactive)
[24]
  GI50: 42.8 µM (inactive)
[25]
  GI50: 64.9 µM
[26]
  GI50: > 100 µM (inactive)
[27]
  GI50: > 100 µM (inactive)
[56]
  GI50: 74.5 µM (inactive)
[57]
  GI50: 2.77 µM (inactive)
[28]
  GI50: 49.8 µM (inactive)
[29]
  GI50: 38.7 µM (inactive)
[30]
  GI50: > 74.8 µM (inactive)
[31]
  GI50: > 10 µM (inactive)
[32]
  GI50: > 100 µM (inactive)
[33]
  GI50: > 100 µM (inactive)
[34]
  GI50: > 100 µM (inactive)
[35]
  GI50: > 59.8 µM (inactive)
[37]
  GI50: > 100 µM (inactive)
[38]
  GI50: > 100 µM (inactive)
[39]
  GI50: > 100 µM (inactive)
[40]
  GI50: > 100 µM (inactive)
[41]
  GI50: > 10 µM (inactive)
[42]
  GI50: 31.4 µM (inactive)
[43]
  GI50: 6.52 µM (inactive)
[44]
  GI50: 18.6 µM (inactive)
[45]
  GI50: > 10 µM (inactive)
[46]
  GI50: 20 µM (inactive)
[47]
  GI50: 25.1 µM (inactive)
[48]
  GI50: 3.74 µM (inactive)
[49]
  GI50: 27.7 µM (inactive)
[58]
  GI50: 35.8 µM (inactive)
[59]
  GI50: > 100 µM (inactive)
[60]
  GI50: > 100 µM (inactive)
[50]
  GI50: > 100 µM (inactive)
[51]
  GI50: 2.45 µM (inactive)
[52]
  GI50: 6.68 µM (inactive)
[53]
  GI50: > 100 µM (inactive)
[54]
  GI50: > 100 µM (inactive)
[55]
  GI50: > 100 µM (inactive)
